The target of the assay is BCL6 (Homo sapiens (Human), UniProt P41182). Kind of assay: Immunofluorescence high content imaging of BCL6 degradation in T47D cells. It counts as cell-based. The note with it: for DC50: class symbols A-D, read-out: EC50 (nM)*; for Dmax: T47D. The gist of the method:
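T47D cells were treated for 3 days at 37 °C with 11-point 3-fold dilutions of bifunctional degrader (final top 0.1 or 1 μM). BCL6 was detected by immunofluorescence after PFA fixation, with Hoechst and cell mask counterstains, and imaged at 10×, 4 fields/well.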

Consider `CNC(=O)COc1cc2cc(Nc3nc(N4CCC(OCCOCCOCCOCc5ccc(Oc6ccc7c(c6)CN(C6CCC(=O)NC6=O)C7=O)cc5)CC4)ncc3Cl)ccc2n(C)c1=O` (centres unmarked) [compound 135, 2-((6-((5-chloro-2-(4-(2-(2-(2-((4-((2-(2,6-dioxopiperidin-3-yl)-1-oxoisoindolin-5-yl)oxy)benzyl)oxy)ethoxy)ethoxy)ethoxy)piperidin-1-yl)pyrimidin-4-yl)amino)-1-methyl-2-oxo-1,2-dihydroquinolin-3-yl)oxy)-N-methylacetamide], for which the DC50 was > 100 nM.
Same read-out and setting: under `CNC(=O)COc1cc2cc(Nc3nc(N4CCC(OCc5ccccc5OCCCCOCCOCCOc5ccc6c(c5)CN(C5CCC(=O)NC5=O)C6=O)CC4)ncc3Cl)ccc2n(C)c1=O` (centres unmarked) [compound 136, 2-((6-((5-chloro-2-(4-((2-(4-(2-(2-((2-(2,6-dioxopiperidin-3-yl)-1-oxoisoindolin-5-yl)oxy)ethoxy)ethoxy)butoxy)benzyl)oxy)piperidin-1-yl)pyrimidin-4-yl)amino)-1-methyl-2-oxo-1,2-dihydroquinolin-3-yl)oxy)-N-methylacetamide] stands > 100 nM; under `CNC(=O)COc1cc2cc(Nc3nc(N4CCC(OCCCOc5ccc6c(c5)CN(C5CCC(=O)NC5=O)C6=O)CC4)ncc3Cl)ccc2n(C)c1=O` (centres unmarked) [compound 139, 2-((6-((5-chloro-2-(4-(3-((2-(2,6-dioxopiperidin-3-yl)-1-oxoisoindolin-5-yl)oxy)propoxy)piperidin-1-yl)pyrimidin-4-yl)amino)-1-methyl-2-oxo-1,2-dihydroquinolin-3-yl)oxy)-N-methylacetamide], 50 to 100 nM.
On the same count and under the same terms, with `CNC(=O)COc1cc2cc(Nc3nc(N4CCC(OCCCOCCCOc5ccc6c(c5)CN(C5CCC(=O)NC5=O)C6=O)CC4)ncc3Cl)ccc2n(C)c1=O` (centres unmarked) [compound 140, 2-((6-((5-chloro-2-(4-(3-(3-((2-(2,6-dioxopiperidin-3-yl)-1-oxoisoindolin-5-yl)oxy)propoxy)propoxy)piperidin-1-yl)pyrimidin-4-yl)amino)-1-methyl-2-oxo-1,2-dihydroquinolin-3-yl)oxy)-N-methylacetamide] the figure was > 100 nM; with `CNC(=O)COc1cc2cc(Nc3nc(N4CCC(OCCCOc5cc(-c6scnc6C)ccc5CNC(=O)[C@@H]5C[C@@H](O)CN5C(=O)C(c5cc(C)no5)C(C)C)CC4)ncc3Cl)ccc2n(C)c1=O` (stereo partly drawn) [compound 141, (2S,4R)-N-(2-(3-((1-(5-chloro-4-((1-methyl-3-(2-(methylamino)-2-oxoethoxy)-2-oxo-1,2-dihydroquinolin-6-yl)amino)pyrimidin-2-yl)piperidin-4-yl)oxy)propoxy)-4-(4-methylthiazol-5-yl)benzyl)-4-hydroxy-1-(3-methyl-2-(3-methylisoxazol-5-yl)butanoyl)pyrrolidine-2-carboxamide], > 100 nM; with `CNC(=O)COc1cc2cc(Nc3nc(N4CCC(OCCCCOc5ccc6c(c5)CN(C5CCC(=O)NC5=O)C6=O)CC4)ncc3Cl)ccc2n(C)c1=O` (centres unmarked) [compound 142, 2-((6-((5-chloro-2-(4-(4-((2-(2,6-dioxopiperidin-3-yl)-1-oxoisoindolin-5-yl)oxy)butoxy)piperidin-1-yl)pyrimidin-4-yl)amino)-1-methyl-2-oxo-1,2-dihydroquinolin-3-yl)oxy)-N-methylacetamide], > 100 nM.
Consider `CNC(=O)COc1cc2cc(Nc3nc(N4CCC(OCCN5CCC(N6CCC(OCC#Cc7ccc8c(c7)CN(C7CCC(=O)NC7=O)C8=O)CC6)CC5)CC4)ncc3Cl)ccc2n(C)c1=O` (centres unmarked) [compound 143, 2-((6-((5-chloro-2-(4-(2-(4-((3-(2-(2,6-dioxopiperidin-3-yl)-1-oxoisoindolin-5-yl)prop-2-yn-1-yl)oxy)-[1,4′-bipiperidin]-1′-yl)ethoxy)piperidin-1-yl)pyrimidin-4-yl)amino)-1-methyl-2-oxo-1,2-dihydroquinolin-3-yl)oxy)-N-methylacetamide], for which the DC50 was in the range of 10 to 50 nM.
Still for that read-out and setting: with `CNC(=O)COc1cc2cc(Nc3nc(N4CCC(OCCCOCCCOc5cc(-c6scnc6C)ccc5CNC(=O)[C@@H]5C[C@@H](O)CN5C(=O)C(c5cc(C)no5)C(C)C)CC4)ncc3Cl)ccc2n(C)c1=O` (stereo partly drawn) [compound 144, (2S,4R)-N-(2-(3-(3-((1-(5-chloro-4-((1-methyl-3-(2-(methylamino)-2-oxoethoxy)-2-oxo-1,2-dihydroquinolin-6-yl)amino)pyrimidin-2-yl)piperidin-4-yl)oxy)propoxy)propoxy)-4-(4-methylthiazol-5-yl)benzyl)-4-hydroxy-1-(3-methyl-2-(3-methylisoxazol-5-yl)butanoyl)pyrrolidine-2-carboxamide] the figure was > 100 nM; with `CNC(=O)COc1cc2cc(Nc3nc(N4CCC(OCCOCCOCCCOCCCOc5ccc6c(c5)CN(C5CCC(=O)NC5=O)C6=O)CC4)ncc3Cl)ccc2n(C)c1=O` (centres unmarked) [compound 145, 2-((6-((5-chloro-2-(4-(2-(2-(3-(3-((2-(2,6-dioxopiperidin-3-yl)-1-oxoisoindolin-5-yl)oxy)propoxy)propoxy)ethoxy)ethoxy)piperidin-1-yl)pyrimidin-4-yl)amino)-1-methyl-2-oxo-1,2-dihydroquinolin-3-yl)oxy)-N-methylacetamide], 50 to 100 nM.
On the same count and under the same terms, with `CNC(=O)COc1cc2cc(Nc3nc(N4CCC(OCCOCCOCCCOc5ccc6c(c5)CN(C5CCC(=O)NC5=O)C6=O)CC4)ncc3Cl)ccc2n(C)c1=O` (centres unmarked) [compound 146, 2-((6-((5-chloro-2-(4-(2-(2-(3-((2-(2,6-dioxopiperidin-3-yl)-1-oxoisoindolin-5-yl)oxy)propoxy)ethoxy)ethoxy)piperidin-1-yl)pyrimidin-4-yl)amino)-1-methyl-2-oxo-1,2-dihydroquinolin-3-yl)oxy)-N-methylacetamide] the figure was > 100 nM; with `CNC(=O)COc1cc2cc(Nc3nc(N4CCC(OCCOCCCOCCCOc5ccc6c(c5)CN(C5CCC(=O)NC5=O)C6=O)CC4)ncc3Cl)ccc2n(C)c1=O` (centres unmarked) [compound 147, 2-((6-((5-chloro-2-(4-(2-(3-(3-((2-(2,6-dioxopiperidin-3-yl)-1-oxoisoindolin-5-yl)oxy)propoxy)propoxy)ethoxy)piperidin-1-yl)pyrimidin-4-yl)amino)-1-methyl-2-oxo-1,2-dihydroquinolin-3-yl)oxy)-N-methylacetamide], > 100 nM.
As usually defined, the IC50 is the concentration at which inhibition is half-maximal. The low end stands for greater potency in that assay, the high end for weaker potency in that assay. Usually Dmax stands for the largest share of the target that was removed. Lower therefore signals a partial loss of target. As to `CC(=O)COc1cc2cc(Nc3nc(N4CCC(N5CCC(Oc6ccc7c(c6)C(=O)N(C6CCC(=O)NC6=O)C7=O)C5)CC4)ncc3Cl)ccc2n(C)c1=O` (centres unmarked) [compound 177, 5-((1-(1-(5-chloro-4-((1-methyl-2-oxo-3-(2-oxopropoxy)-1,2-dihydroquinolin-6-yl)amino)pyrimidin-2-yl)piperidin-4-yl)pyrrolidin-3-yl)oxy)-2-(2,6-dioxopiperidin-3-yl)isoindoline-1,3-dione], the half-inhibitory concentration (IC50) was ≥ 100 nM and the greatest degradation seen (Dmax) was < 50%.
In the same order, the values of `CC(=O)COc1cc2cc(Nc3nc(N4CCC(OC5CN(c6ccc7c(c6)C(=O)N(C6CCC(=O)NC6=O)C7=O)C5)CC4)ncc3Cl)ccc2n(C)c1=O` (centres unmarked) [compound 178, 5-(3-((1-(5-chloro-4-((1-methyl-2-oxo-3-(2-oxopropoxy)-1,2-dihydroquinolin-6-yl)amino)pyrimidin-2-yl)piperidin-4-yl)oxy)azetidin-1-yl)-2-(2,6-dioxopiperidin-3-yl)isoindoline-1,3-dione] are 10 to 50 nM and < 50%.
`CC(=O)COc1cc2cc(Nc3nc(N4CCOC(COc5ccc6c(c5)C(=O)N(C5CCC(=O)NC5=O)C6=O)C4)ncc3Cl)ccc2n(C)c1=O` (centres unmarked) [compound 179, 5-((4-(5-chloro-4-((1-methyl-2-oxo-3-(2-oxopropoxy)-1,2-dihydroquinolin-6-yl)amino)pyrimidin-2-yl)morpholin-2-yl)methoxy)-2-(2,6-dioxopiperidin-3-yl)isoindoline-1,3-dione]: the IC50 is ≥ 100 nM and the greatest degradation seen (Dmax) lay within 50 to 70%.
Take `CC(=O)COc1cc2cc(Nc3nc(N4CCC(OCCOC5CCN(c6ccc7c(c6)C(=O)N(C6CCC(=O)NC6=O)C7=O)CC5)C4)ncc3Cl)ccc2n(C)c1=O` (centres unmarked) [compound 180, 5-(4-(2-((1-(5-chloro-4-((1-methyl-2-oxo-3-(2-oxopropoxy)-1,2-dihydroquinolin-6-yl)amino)pyrimidin-2-yl)pyrrolidin-3-yl)oxy)ethoxy)piperidin-1-yl)-2-(2,6-dioxopiperidin-3-yl)isoindoline-1,3-dione]: the 50% inhibitory concentration (IC50) was ≥ 100 nM.
Still for that read-out and setting: under `CC(=O)COc1cc2cc(Nc3nc(C#CC4CCCN(c5ccc6c(c5)C(=O)N(C5CCC(=O)NC5=O)C6=O)C4)ncc3Cl)ccc2n(C)c1=O` (centres unmarked) [compound 181, 5-(3-((5-chloro-4-((1-methyl-2-oxo-3-(2-oxopropoxy)-1,2-dihydroquinolin-6-yl)amino)pyrimidin-2-yl)ethynyl)piperidin-1-yl)-2-(2,6-dioxopiperidin-3-yl)isoindoline-1,3-dione] stands ≥ 100 nM.
With `CC(=O)COc1cc2cc(Nc3nc(N4CCC(N5CCCC5COc5ccc6c(c5)C(=O)N(C5CCC(=O)NC5=O)C6=O)CC4)ncc3Cl)ccc2n(C)c1=O` (centres unmarked) [compound 182, 5-((1-(1-(5-chloro-4-((1-methyl-2-oxo-3-(2-oxopropoxy)-1,2-dihydroquinolin-6-yl)amino)pyrimidin-2-yl)piperidin-4-yl)pyrrolidin-2-yl)methoxy)-2-(2,6-dioxopiperidin-3-yl)isoindoline-1,3-dione], the IC50 is ≥ 100 nM and the greatest degradation seen (Dmax) is < 50%.
On the same counts, the results for `CC(=O)COc1cc2cc(Nc3nc(N4CC(OC5CCN(c6ccc7c(c6)C(=O)N(C6CCC(=O)NC6=O)C7=O)CC5)C4)ncc3Cl)ccc2n(C)c1=O` (centres unmarked) [compound 183, 5-(4-((1-(5-chloro-4-((1-methyl-2-oxo-3-(2-oxopropoxy)-1,2-dihydroquinolin-6-yl)amino)pyrimidin-2-yl)azetidin-3-yl)oxy)piperidin-1-yl)-2-(2,6-dioxopiperidin-3-yl)isoindoline-1,3-dione] are 10 to 50 nM and < 50%.

Source of the values: patent US12310975B2, “Modulators of BCL6 proteolysis and associated methods of use” (Arvinas Operations, Inc., priority 2019, dated 2025).
